Measured values taken from patent publication US10208089B2, “Modulation of complement activity” (priority 2014, dated 2019).
Like-named read-outs stand apart in the source and are kept apart here. Starred links: 1 amine or outer side, 2 acyl side, 3 side chain; linkers in the order of their positions; H or OH if unused. Positions of bridges follow the written chain, without caps; N, C: chain ends. Non-standard residues stand in square brackets, D forms with d. Residues, ends and D or L forms follow the SMILES beside them. Ala(1H-tetrazol-5-yl) = N[C@@H](Cc1nnn[nH]1)C(=O)O; Trp(7-aza) = N[C@@H](Cc1c[nH]c2ncccc12)C(=O)O; mXylylene = c1cc(C[*:1])cc(C[*:2])c1; dPhg = N[C@@H](C(=O)O)c1ccccc1; Chg = N[C@H](C(=O)O)C1CCCCC1; Phg = N[C@H](C(=O)O)c1ccccc1; Tle = CC(C)(C)[C@H](N)C(=O)O; NMeS = CN[C@@H](CO)C(=O)O; Nva = CCC[C@H](N)C(=O)O

How the values were obtained:
C5 [1] = target: T1, C5 (Homo sapiens, UniProt P01031); assay: Human hemolysis assay (RBC lysis assay using complete human sera); assay type: cell-based; parameters: with complete human sera (Complement Technology, Tyler Tex.) and polypeptides; tissue Complement Technology, Tyler Tex; host or cells: complete human serum; details: inhibition of lysis of antibody-sensitized sheep erythrocytes, complete human sera
C5 [2] = target: T1, C5; assay: Competitive fluorescence polarization assay with probe R3076; assay type: binding; parameters: purchased Complement Technology, Tyler, Tex
Experimental: FP allows binding events to be measured in a homogenous solution.
Polarization was measured over time, until binding reached equilibrium. KD was determined using Graphpad Prism (using “Saturating Binding Curves, One Site—Specific Binding With Hill Slope” as the curve fit to determine KD).
10 μl of this working stock was then added to each well in the assay plate. The assay plate was incubated at room temperature, protected from light, for 20 minutes to allow binding to reach equilibrium.
Test articles listed in Table 7 were subsequently diluted in DMSO then assay buffer, comprising 10 2-fold dilutions and were then added to the assay plate in triplicate, rapidly. The assay plate was then incubated in the Paradigm (Molecular Devices, Sunnyvale, Calif.) plate reader for 60 minutes at 25° C.
After incubation for 60 minutes, the plate was read using the Paradigm FP protocol (Molecular Devices, Sunnyvale, Calif.) and raw polarization values were imported into Graphpad Prism.

[3] = average of Exp 1 and Exp 2, read-out: Avg, nM IC50
[4] = competition with probe R3076 25 nM, C5 50 nM, 60 min at 25° C., experiment 1, read-out: IC50 nM, Exp 1
[5] = competition with probe R3076 25 nM, C5 50 nM, 60 min at 25° C., experiment 1, read-out: Ki nM, Exp 1
[6] = competition with probe R3076 25 nM, C5 50 nM, 60 min at 25° C., experiment 2, read-out: IC50 nM, Exp 2
[7] = competition with probe R3076 25 nM, C5 50 nM, 60 min at 25° C., experiment 2, read-out: Ki nM, Exp 2
[8] = average of Exp 1 and Exp 2, read-out: Avg, nM Ki

T1 sequence (P01031 19-1676): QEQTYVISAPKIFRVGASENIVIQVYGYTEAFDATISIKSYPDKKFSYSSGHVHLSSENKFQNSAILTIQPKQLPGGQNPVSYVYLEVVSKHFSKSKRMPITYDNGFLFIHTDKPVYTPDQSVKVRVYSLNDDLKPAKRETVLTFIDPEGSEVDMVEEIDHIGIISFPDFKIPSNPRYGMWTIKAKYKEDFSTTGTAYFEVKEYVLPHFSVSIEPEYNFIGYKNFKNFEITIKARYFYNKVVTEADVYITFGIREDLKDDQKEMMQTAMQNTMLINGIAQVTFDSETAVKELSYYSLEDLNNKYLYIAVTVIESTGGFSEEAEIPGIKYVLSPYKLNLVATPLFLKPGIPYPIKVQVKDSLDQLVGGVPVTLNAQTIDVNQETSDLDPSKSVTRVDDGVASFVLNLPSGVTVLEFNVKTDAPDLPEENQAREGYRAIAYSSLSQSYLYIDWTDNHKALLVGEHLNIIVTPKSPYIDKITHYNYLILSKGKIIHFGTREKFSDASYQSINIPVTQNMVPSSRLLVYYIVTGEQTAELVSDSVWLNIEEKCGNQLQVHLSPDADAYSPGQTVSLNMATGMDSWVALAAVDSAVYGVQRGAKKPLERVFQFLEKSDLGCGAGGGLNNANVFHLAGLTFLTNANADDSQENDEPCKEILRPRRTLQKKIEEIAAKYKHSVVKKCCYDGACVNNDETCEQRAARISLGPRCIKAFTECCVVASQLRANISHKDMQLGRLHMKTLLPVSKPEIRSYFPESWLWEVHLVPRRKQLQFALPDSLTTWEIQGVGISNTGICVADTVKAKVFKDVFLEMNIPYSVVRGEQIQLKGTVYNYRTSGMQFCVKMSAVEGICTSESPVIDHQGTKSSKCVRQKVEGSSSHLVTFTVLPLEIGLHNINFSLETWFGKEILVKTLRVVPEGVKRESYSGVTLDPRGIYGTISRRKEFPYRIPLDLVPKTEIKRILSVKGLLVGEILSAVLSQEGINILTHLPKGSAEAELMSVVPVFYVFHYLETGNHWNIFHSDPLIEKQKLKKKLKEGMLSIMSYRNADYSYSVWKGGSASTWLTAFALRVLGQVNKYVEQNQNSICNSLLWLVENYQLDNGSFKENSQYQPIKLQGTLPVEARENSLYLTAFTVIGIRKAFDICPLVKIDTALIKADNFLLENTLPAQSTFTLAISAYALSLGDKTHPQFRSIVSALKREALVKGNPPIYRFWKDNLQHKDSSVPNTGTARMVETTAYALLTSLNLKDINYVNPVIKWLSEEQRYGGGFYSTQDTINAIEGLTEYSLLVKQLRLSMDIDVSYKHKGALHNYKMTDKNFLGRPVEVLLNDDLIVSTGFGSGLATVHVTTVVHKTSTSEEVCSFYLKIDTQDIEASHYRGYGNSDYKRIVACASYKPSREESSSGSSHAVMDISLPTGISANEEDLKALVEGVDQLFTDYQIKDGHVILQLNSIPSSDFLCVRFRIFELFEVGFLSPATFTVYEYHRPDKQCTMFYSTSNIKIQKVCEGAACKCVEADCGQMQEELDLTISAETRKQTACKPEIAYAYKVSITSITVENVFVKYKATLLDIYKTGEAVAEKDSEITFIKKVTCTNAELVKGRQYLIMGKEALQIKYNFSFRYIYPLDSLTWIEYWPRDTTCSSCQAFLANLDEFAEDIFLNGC

`CCC[C@H](NC(C)=O)C(=O)N[C@@H](CS)C(=O)N[C@@H](Cc1ccc(O)cc1)C(=O)N[C@@H](CCC(=O)O)C(=O)N[C@@H](CC(N)=O)C(=O)N[C@H](C(=O)N[C@@H](Cc1ccc(O)cc1)C(=O)N[C@@H](Cc1c[nH]c2ncccc12)C(=O)N[C@@H](CCC(=O)O)C(=O)N[C@@H](Cc1ccc(O)cc1)C(=O)N1CCC[C@H]1C(=O)N[C@H](C(=O)N1CCC[C@H]1C(N)=O)c1ccccc1)C(C)(C)C` [Compound R3003, Ac-Nvl-C-Y-E-N-Tbg-Y-azaTrp-E-Y-P-Phg-P-NH2] (Ac-[Nva]CYEN[Tle]Y[Trp(7-aza)]EYP[Phg]P-NH2) showed an IC50 (C5 [1]) of 13.9 nM, an IC50 (C5 [2]; [3]) of 68.4 nM and an IC50 (C5 [2]; [4]) of 72.7 nM. For the same compound, the Ki (C5 [2]; [5]) was 10.4 nM, the IC50 (C5 [2]; [6]) was 64.1 nM and the Ki (C5 [2]; [7]) was 8.69 nM. The “competition with labeled probe / affinity for C5 (in words)” value (C5 [2]; probe R3076 25 nM, C5 50 nM) was “most potent” and the Ki (C5 [2]; probe R3076 25 nM, C5 50 nM, read-out: Ki) was 9.54 nM.

`CCC[C@H](NC(C)=O)C(=O)N[C@H]1CSCc2cccc(c2)CSC[C@@H](C(=O)N[C@@H](CCC)C(=O)N2CCC[C@H]2C(N)=O)NC(=O)[C@H](Cc2c[nH]cn2)NC(=O)[C@H](CO)N(C)C(=O)[C@H](Cc2ccc(O)cc2)NC(=O)[C@H](CCC(=O)O)NC(=O)[C@H](Cc2c[nH]c3ncccc23)NC(=O)[C@H]([C@@H](C)O)NC(=O)[C@H](c2ccccc2)NC1=O` [Compound R3011, [mXylyl(2,10)]Ac-Nvl-C-Phg-T-azaTrp-E-Y-(N-Me)S-H-C-Nvl-P-NH2] (Ac-[Nva]C[Phg]T[Trp(7-aza)]EY[NMeS]HC[Nva]P-NH2; linker 2-10 via mXylylene) gave an IC50 (C5 [1]) of 112 nM, an IC50 (C5 [2]; [3]) of 278 nM and a Ki (C5 [2]; [8]) of 80 nM. For the same compound, the IC50 (C5 [2]; [4]) was 295 nM, the Ki (C5 [2]; [5]) was 73.2 nM and the IC50 (C5 [2]; [6]) was 261 nM. For the same compound, the Ki (C5 [2]; [7]) was 86.9 nM and the “competition with labeled probe / affinity for C5 (in words)” value (C5 [2]; probe R3076 25 nM, C5 50 nM) was “relatively strong affinity”.

`CCC[C@H](NC(=O)[C@@H]1CCCN1C(=O)[C@H](CCC)NC(=O)[C@@H]1CSCc2cccc(c2)CSC[C@H](NC(C)=O)C(=O)N[C@@H](c2ccccc2)C(=O)N[C@@H]([C@@H](C)O)C(=O)N[C@@H](Cc2c[nH]c3ncccc23)C(=O)N[C@@H](CCC(=O)O)C(=O)N[C@@H](Cc2ccc(O)cc2)C(=O)N(C)[C@@H](CO)C(=O)N[C@@H](Cc2c[nH]cn2)C(=O)N1)C(N)=O` [Compound R3014, [mXylyl(1,9)]Ac-C-Phg-T-azaTrp-E-Y-(N-Me)S-H-C-Nvl-P-Nvl-NH2] (Ac-C[Phg]T[Trp(7-aza)]EY[NMeS]HC[Nva]P[Nva]-NH2; linker 1-9 via mXylylene) showed an IC50 (C5 [1]) of 1420 nM, an IC50 (C5 [2]; [3]) of 6820 nM and a Ki (C5 [2]; [8]) of 1490 nM. For the same compound, the IC50 (C5 [2]; [4]) was 6060 nM, the Ki (C5 [2]; [5]) was 1400 nM and the IC50 (C5 [2]; [6]) was 7580 nM. The Ki (C5 [2]; [7]) was 1590 nM and the “competition with labeled probe / affinity for C5 (in words)” value (C5 [2]; probe R3076 25 nM, C5 50 nM) was “weak affinity”.

`CCC[C@H](NC(=O)[C@@H](NC(=O)[C@@H]1CCCN1C(=O)[C@H](Cc1ccc(O)cc1)NC(=O)[C@H](CCC(=O)O)NC(=O)[C@H](Cc1c[nH]c2ncccc12)NC(=O)[C@H](Cc1ccc(O)cc1)NC(=O)[C@@H](NC(=O)[C@H](C)NC(=O)[C@@H]1CSCc2cccc(c2)CSC[C@H](NC(C)=O)C(=O)N[C@@H](C(C)C)C(=O)N[C@@H](CCC(=O)O)C(=O)N[C@@H](CCCNC(=N)N)C(=O)N[C@@H](Cc2ccccc2)C(=O)N1)C(C)(C)C)c1ccccc1)C(N)=O` [Compound R3157, [mXylyl(1,6)]Ac-C-V-E-R-F-C-A-Tbg-Y-azaTrp-E-Y-P-Phg-Nvl-NH2] (Ac-CVERFCA[Tle]Y[Trp(7-aza)]EYP[Phg][Nva]-NH2; linker 1-6 via mXylylene) showed an IC50 (C5 [1]) of 84.5 nM.

In the case of `CCC[C@H](NC(=O)[C@H](NC(=O)[C@@H]1CCCN1C(=O)[C@H](Cc1ccc(O)cc1)NC(=O)[C@H](CCC(=O)O)NC(=O)[C@H](Cc1c[nH]c2ncccc12)NC(=O)[C@H](Cc1ccc(O)cc1)NC(=O)[C@@H](NC(=O)[C@H](C)NC(=O)[C@@H]1CSCc2cccc(c2)CSC[C@H](NC(C)=O)C(=O)N[C@@H](C(C)C)C(=O)N[C@@H](CCC(=O)O)C(=O)N[C@@H](CCCNC(=N)N)C(=O)N[C@@H](Cc2ccccc2)C(=O)N1)C(C)(C)C)c1ccccc1)C(N)=O` [Compound R3158, [mXylyl(1,6)]Ac-C-V-E-R-F-C-A-Tbg-Y-azaTrp-E-Y-P-(D-Phg)-Nvl-NH2] (Ac-CVERFCA[Tle]Y[Trp(7-aza)]EYP[dPhg][Nva]-NH2; linker 1-6 via mXylylene), the IC50 (C5 [1]) is reported as 327 nM.

`CC(=O)N[C@H]1CSCc2cccc(c2)CSC[C@@H](C(=O)N[C@@H](CC(=O)O)C(=O)N[C@H](C(=O)N[C@@H](Cc2ccc(O)cc2)C(=O)N[C@@H](Cc2c[nH]c3ncccc23)C(=O)N[C@@H](CCC(=O)O)C(=O)N[C@@H](Cc2ccc(O)cc2)C(=O)N2CCC[C@H]2C(=O)N[C@H](C(=O)N[C@@H](CCCCN)C(N)=O)c2ccccc2)C(C)(C)C)NC(=O)[C@H](Cc2ccccc2)NC(=O)[C@H](CCCNC(=N)N)NC(=O)[C@H](CCC(=O)O)NC(=O)[C@H](C)NC1=O` [Compound R3161, [mXylyl(1,6)]Ac-C-A-E-R-F-C-D-Tbg-Y-azaTrp-E-Y-P-Phg-K-NH2] showed an IC50 (C5 [1]) of 7 nM.

In the case of `CC(=O)N[C@H]1CSCc2cccc(c2)CSC[C@@H](C(=O)N[C@@H](CC(=O)O)C(=O)N[C@H](C(=O)N[C@@H](Cc2ccc(O)cc2)C(=O)N[C@@H](Cc2c[nH]c3ncccc23)C(=O)N[C@@H](CCC(=O)O)C(=O)N[C@@H](Cc2ccc(O)cc2)C(=O)N2CCC[C@H]2C(=O)N[C@@H](C(=O)N[C@@H](CCCCN)C(N)=O)c2ccccc2)C(C)(C)C)NC(=O)[C@H](Cc2ccccc2)NC(=O)[C@H](CCCNC(=N)N)NC(=O)[C@H](CCC(=O)O)NC(=O)[C@H](C)NC1=O` [Compound R3162, [mXylyl(1,6)]Ac-C-A-E-R-F-C-D-Tbg-Y-azaTrp-E-Y-P-(D-Phg)-K-NH2], the IC50 (C5 [1]) is reported as 16.5 nM.

For `CCCCCCCCCCCC(=O)NCCCC[C@H](NC(=O)[C@@H](NC(=O)[C@@H]1CCCN1C(=O)[C@H](Cc1ccc(O)cc1)NC(=O)[C@H](CCC(=O)O)NC(=O)[C@H](Cc1c[nH]c2ncccc12)NC(=O)[C@H](Cc1ccc(O)cc1)NC(=O)[C@@H](NC(=O)[C@H](CC(=O)O)NC(=O)[C@@H]1CSCc2cccc(c2)CSC[C@H](NC(C)=O)C(=O)N[C@@H](C)C(=O)N[C@@H](CCC(=O)O)C(=O)N[C@@H](CCCNC(=N)N)C(=O)N[C@@H](Cc2ccccc2)C(=O)N1)C(C)(C)C)c1ccccc1)C(N)=O` [Compound R3164, [mXylyl(1,6)]Ac-C-A-E-R-F-C-D-Tbg-Y-azaTrp-E-Y-P-Phg-(Lys-C12)-NH2], the IC50 (C5 [1]) was 36 nM.

Compound `CCCCCCCC(=O)NCCCC[C@H](NC(=O)[C@@H](NC(=O)[C@@H]1CCCN1C(=O)[C@H](Cc1ccc(O)cc1)NC(=O)[C@H](CCC(=O)O)NC(=O)[C@H](Cc1c[nH]c2ncccc12)NC(=O)[C@H](Cc1ccc(O)cc1)NC(=O)[C@@H](NC(=O)[C@H](CC(=O)O)NC(=O)[C@@H]1CSCc2cccc(c2)CSC[C@H](NC(C)=O)C(=O)N[C@@H](C)C(=O)N[C@@H](CCC(=O)O)C(=O)N[C@@H](CCCNC(=N)N)C(=O)N[C@@H](Cc2ccccc2)C(=O)N1)C(C)(C)C)c1ccccc1)C(N)=O` [Compound R3166, [mXylyl(1,6)]Ac-C-A-E-R-F-C-D-Tbg-Y-azaTrp-E-Y-P-Phg-(Lys-C8)-NH2] has an IC50 (C5 [1]) of 17.5 nM.

`CCC[C@H](NC(=O)[C@@H](NC(=O)[C@@H]1CCCN1C(=O)[C@H](Cc1ccc(O)cc1)NC(=O)[C@H](CCC(=O)O)NC(=O)[C@H](Cc1c[nH]c2ncccc12)NC(=O)[C@H](Cc1ccc(O)cc1)NC(=O)[C@@H](NC(=O)[C@H](Cc1nnn[nH]1)NC(=O)[C@@H]1CSCc2cccc(c2)CSC[C@H](NC(C)=O)C(=O)N[C@@H](C(C)C)C(=O)N[C@@H](CCC(=O)O)C(=O)N[C@@H](CCCNC(=N)N)C(=O)N[C@@H](Cc2ccccc2)C(=O)N1)C(C)(C)C)C1CCCCC1)C(N)=O` [Compound R3168, [mXylyl(1,6)]Ac-C-V-E-R-F-C-Asp(T)-Tbg-Y-azaTrp-E-Y-P-Chg-Nvl-NH2] (Ac-CVERFC[Ala(1H-tetrazol-5-yl)][Tle]Y[Trp(7-aza)]EYP[Chg][Nva]-NH2; linker 1-6 via mXylylene) showed an IC50 (C5 [1]) of 7.5 nM.

In the case of `CCC[C@H](NC(=O)[C@@H](NC(=O)[C@@H]1CCCN1C(=O)[C@H](Cc1ccc(O)cc1)NC(=O)[C@H](CCC(=O)O)NC(=O)[C@H](Cc1c[nH]c2ncccc12)NC(=O)[C@H](Cc1ccc(O)cc1)NC(=O)[C@@H](NC(=O)[C@H](CC(=O)O)N(C)C(=O)[C@@H]1CSCc2cccc(c2)CSC[C@H](NC(C)=O)C(=O)N[C@@H](C(C)C)C(=O)N[C@@H](CCC(=O)O)C(=O)N[C@@H](CCCNC(=N)N)C(=O)N[C@@H](Cc2ccccc2)C(=O)N1)C(C)(C)C)C1CCCCC1)C(N)=O` [Compound R3172, [mXylyl(1,6)]Ac-C-V-E-R-F-C-(N-Me)D-Tbg-Y-azaTrp-E-Y-P-Chg-Nvl-NH2], the IC50 (C5 [1]) is reported as 12 nM.
